These are literature values, as cited in US20070122442A1, “Triple-Action Pest Control Formulation and Method” (priority 2004, published 2007).

Molecules are shown by their SMILES.

The series has as its system insects. The settings on record: variety of insects.

For the molecule `OB(O)O` [boric acid], the “retention at which boric acid is known to be effective” value is listed as “below 0.5%”.
